Molecular target: T1, CYP51Ca (recombinant protein CYP51 of C. albicans) (Candida albicans, UniProt P10613)
T1 construct: gene ERG11; commercial recombinant protein from Sangon Biotech (Shanghai)
Assay: biolayer interferometry (BLI), protein immobilised on APS sensor
Assay type: binding
Excerpt: biolayer interferometry (BLI), protein immobilised on APS sensor on CYP51Ca (recombinant protein CYP51 of C. albicans) | berberine binds to CYP51Ca in a dose-dependent manner, with a dissociation constant (KD)

T1 sequence (P10613 whole entry): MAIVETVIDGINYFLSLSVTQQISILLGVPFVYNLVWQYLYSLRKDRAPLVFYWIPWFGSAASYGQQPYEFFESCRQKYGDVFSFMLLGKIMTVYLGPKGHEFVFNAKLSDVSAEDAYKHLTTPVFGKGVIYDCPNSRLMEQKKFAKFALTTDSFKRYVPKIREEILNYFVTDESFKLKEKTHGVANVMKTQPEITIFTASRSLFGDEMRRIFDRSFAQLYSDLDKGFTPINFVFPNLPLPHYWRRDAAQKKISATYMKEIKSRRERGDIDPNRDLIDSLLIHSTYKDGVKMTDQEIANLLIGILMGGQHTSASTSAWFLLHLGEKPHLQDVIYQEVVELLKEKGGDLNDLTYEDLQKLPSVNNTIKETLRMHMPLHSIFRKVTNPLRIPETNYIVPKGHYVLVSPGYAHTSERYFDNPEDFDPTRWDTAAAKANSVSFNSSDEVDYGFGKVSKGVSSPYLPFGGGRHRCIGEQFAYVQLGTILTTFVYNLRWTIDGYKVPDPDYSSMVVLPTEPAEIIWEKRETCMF

**Q.** Which Kd does the source give for `COc1ccc2cc3[n+](cc2c1OC)CCc1cc2c(cc1-3)OCO2` [berberine] here?
**A.** < 1 pM
